In patent publication US8143263B2, “Therapeutic agents” (Astrazeneca AB, priority 2008, dated 2012):

Target: T1, recombinant human pancreatic GLK (Homo sapiens, UniProt P35557)
T1 sequence (P35557 1-465): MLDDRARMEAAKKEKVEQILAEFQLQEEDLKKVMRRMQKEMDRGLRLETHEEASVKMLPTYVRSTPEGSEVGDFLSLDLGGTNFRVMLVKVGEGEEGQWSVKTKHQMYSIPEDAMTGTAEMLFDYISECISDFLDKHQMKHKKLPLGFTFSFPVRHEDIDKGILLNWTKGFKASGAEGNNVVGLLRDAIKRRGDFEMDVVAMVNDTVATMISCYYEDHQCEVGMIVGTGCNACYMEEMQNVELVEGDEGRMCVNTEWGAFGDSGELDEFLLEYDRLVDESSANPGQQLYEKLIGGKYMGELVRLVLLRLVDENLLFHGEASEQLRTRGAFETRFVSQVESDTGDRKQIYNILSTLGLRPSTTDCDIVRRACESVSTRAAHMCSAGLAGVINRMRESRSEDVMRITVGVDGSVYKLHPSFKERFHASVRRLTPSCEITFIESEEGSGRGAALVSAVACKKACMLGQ
Experiment: biochemical

Row | SMILES | EC50 [nM]
1 | C[C@H](CO)OC[C@H](Oc1ncnc2c1cnn2-c1ccccc1Cl)C(=O)Nc1ccc(F)cn1 [Example 245, (2S)-2-[1-(2-chlorophenyl)pyrazolo[3,4-d]pyrimidin-4-yl]oxy-N-(5-fluoro-2-pyridyl)-3-[(1R)-2-hydroxy-1-methyl-ethoxy]propanamide] | 470
2 | Cc1ccc(NC(=O)[C@H](COC(C)C)Oc2ncnc3c2cnn3-c2ccccc2C#N)nc1 [Example 97a, (2S)-2-[1-(2-cyanophenyl)pyrazolo[4,5-e]pyrimidin-4-yl]oxy-N-(5-methylpyridin-2-yl)-3-propan-2-yloxypropanamide] | 460
3 | Cc1ccc(NC(=O)[C@H](CCCO)Oc2ncnc3c2cnn3-c2ncccc2Cl)nc1 [Example 131, (2S)-2-[1-(3-chloropyridin-2-yl)pyrazolo[4,5-e]pyrimidin-4-yl]oxy-5-hydroxy-N-(5-methylpyridin-2-yl)pentanamide] | 410
4 | Cc1ccc(NC(=O)C(Oc2ncnc3c2cnn3-c2ccccc2Cl)C(C)C)nc1 (stereo not drawn) [Example 83, 2-(1-(2-chlorophenyl)-1H-pyrazolo[3,4-d]pyrimidin-4-yloxy)-3-methyl-N-(5-methylpyridin-2-yl)butanamide] | 870
5 | CCCCC(Sc1ncnc2c1cnn2-c1ccccc1Cl)C(=O)Nc1nc(C)cs1 (stereo not drawn) [Example 59, 2-{[1-(2-chlorophenyl)-1h-pyrazolo[3,4-]pyrimidin-4-yl]thio}-n-(4-methyl-1,3-thiazol-2-yl)hexanamide] | 650
6 | CCOC[C@H](Oc1ncnc2c1cnn2-c1ccccc1S(C)(=O)=O)C(=O)Nc1ccc(Cl)cn1 [Example 130, (2S)—N-(5-chloropyridin-2-yl)-3-ethoxy-2-(1-(2-(methylsulfonyl)phenyl)-1H-pyrazolo[3,4-d]pyrimidin-4-yloxy)propanamide] | 1100
7 | Cc1cnc(NC(=O)[C@H](COC2CCC2)Oc2ncnc3c2cnn3-c2ccncc2C)cn1 [Example 136, (2S)-3-cyclobutyloxy-N-(5-methylpyrazin-2-yl)-2-[1-(3-methylpyridin-4-yl)pyrazolo[4,5-e]pyrimidin-4-yl]oxypropanamide] | 2100
8 | Cc1ccc(NC(=O)C(CCC(N)=O)Oc2ncnc3c2cnn3-c2ccccc2Cl)nc1 (stereo not drawn) [Example 50, 2-{[1-(2-chlorophenyl)-1H-pyrazolo[3,4-d]pyrimidin-4-yl]oxy}-N1-(5-methylpyridin-2-yl)pentanediamide] | 590
9 | O=C(Nc1ccc(Cl)cn1)[C@H](CN1CC(O)C1)Oc1ncnc2c1cnn2-c1ncccc1Cl [Example 165, (2S)—N-(5-chloropyridin-2-yl)-2-[1-(3-chloropyridin-2-yl)pyrazolo[4,5-e]pyrimidin-4-yl]oxy-3-(3-hydroxyazetidin-1-yl)propanamide] | 370
10 | Cc1ccc(NC(=O)[C@H](COC2CCC2)Oc2ncnc3c2cnn3-c2nccnc2C)nc1 [Example 144, (2S)-3-(cyclobutoxy)-2-[1-(3-methylpyrazin-2-yl)pyrazolo[4,5-e]pyrimidin-4-yl]oxy-N-(5-methyl-2-pyridyl)propanamide] | 510
11 | Cc1ccc(NC(=O)[C@H](COCCO)Oc2ncnc3c2cnn3-c2c(Cl)cccc2C#N)nc1 [Example 176, (2S)-2-(1-(2-chloro-6-cyanophenyl)-1H-pyrazolo[3,4-d]pyrimidin-4-yloxy)-3-(2-hydroxyethoxy)-N-(5-methylpyridin-2-yl)propanamide] | 380
12 | CCOC[C@H](Oc1ncnc2c1cnn2-c1ncccc1Cl)C(=O)Nc1ccc(S(C)(=O)=O)cn1 [Example 139, (2S)-2-(1-(3-chloropyridin-2-yl)-1H-pyrazolo[3,4-d]pyrimidin-4-yloxy)-3-ethoxy-N-(5-(methylsulfonyl)pyridin-2-yl)propanamide] | 1400
13 | CCOC[C@H](Oc1ncnc2c1cnn2-c1ccccc1C(F)(F)F)C(=O)Nc1cnc(C)cn1 [Example 133, (2S)-3-ethoxy-N-(5-methylpyrazin-2-yl)-2-[1-[2-(trifluoromethyl)phenyl]pyrazolo[4,5-e]pyrimidin-4-yl]oxypropanamide] | 1100
14 | Cc1ccc(NC(=O)[C@H](COCCO)Oc2ncnc3c2cnn3-c2cccc(C#N)c2C)nc1 [Example 208, (2S)-2-(1-(3-cyano-2-methylphenyl)-1H-pyrazolo[3,4-d]pyrimidin-4-yloxy)-3-(2-hydroxyethoxy)-N-(5-methylpyridin-2-yl)propanamide] | 2800
15 | Cc1cnc(NC(=O)[C@H](COC2CCC2)Oc2ncnc3c2cnn3-c2ccccc2Cl)cn1 [Example 156, (2S)-2-(1-(2-chlorophenyl)-1H-pyrazolo[3,4-d]pyrimidin-4-yloxy)-3-cyclobutoxy-N-(5-methylpyrazin-2-yl)propanamide] | 87
16 | CCOC[C@H](Oc1ncnc2c1nnn2-c1ccccc1Cl)C(=O)Nc1ccc(C#N)cn1 [Example 197, (2S)-2-(3-(2-chlorophenyl)-3H-[1,2,3]triazolo[4,5-d]pyrimidin-7-yloxy)-N-(5-cyanopyridin-2-yl)-3-ethoxypropanamide] | 600
17 | O=C(Nc1ccc(Cl)cn1)[C@H](COCCO)Oc1ncnc2c1cnn2-c1ncccc1Cl [Example 163, (2S)—N-(5-chloropyridin-2-yl)-2-(1-(3-chloropyridin-2-yl)-1H-pyrazolo[3,4-d]pyrimidin-4-yloxy)-3-(2-hydroxyethoxy)propanamide] | 580
18 | COC[C@@H](Oc1ncnc2c1cnn2-c1ccccc1OC)C(=O)Nc1ccc(C)cn1 [Example 5, (R)-3-methoxy-2-{[1-(2-methoxyphenyl)-1H-pyrazolo[3,4-d]pyrimidin-4-yl]oxy}-N-(5-methylpyridin-2-yl)propanamide] | ≥ 100000
19 | Cc1ccc(F)cc1-n1ncc2c(O[C@@H](COCCO)C(=O)Nc3ccc(C#N)cn3)ncnc21 [Example 182, (2S)—N-(5-cyanopyridin-2-yl)-2-(1-(5-fluoro-2-methylphenyl)-1H-pyrazolo[3,4-d]pyrimidin-4-yloxy)-3-(2-hydroxyethoxy)propanamide] | 3000
20 | Cc1cnc(NC(=O)[C@H](COC2CCC2)Oc2ncnc3c2cnn3-c2ncccc2C)cn1 [Example 141, (2S)-3-cyclobutoxy-N-(5-methylpyrazin-2-yl)-2-(1-(3-methylpyridin-2-yl)-1H-pyrazolo[3,4-d]pyrimidin-4-yloxy)propanamide] | 340
21 | CCOC(Sc1ncnc2c1cnn2-c1ccccc1OC)C(=O)Nc1ccon1 (stereo not drawn) [Example 72, 2-Ethoxy-N-isoxazol-3-yl-2-{[1-(2-methoxyphenyl)-1H-pyrazolo[3,4-d]pyrimidin-4-yl]thio}acetamide] | 2900
22 | O=C(Nc1ccncn1)[C@H](CCO)Oc1ncnc2c1cnn2-c1ncccc1Cl [Example 143f, (2S)-2-[1-(3-chloro-2-pyridyl)pyrazolo[4,5-e]pyrimidin-4-yl]oxy-4-hydroxy-N-pyrimidin-4-yl-butanamide] | 980
23 | Cc1cccnc1-n1ncc2c(O[C@@H](COC(C)C)C(=O)Nc3ccc(Cl)cn3)ncnc21 [Example 127b, (2S)—N-(5-chloropyridin-2-yl)-3-isopropoxy-2-(1-(3-methylpyridin-2-yl)-1H-pyrazolo[3,4-d]pyrimidin-4-yloxy)propanamide] | 840
24 | CC(C)OCC(Oc1ncnc2c1cnn2-c1ccccc1Cl)C(=O)Nc1ccc(F)cn1 (stereo not drawn) [Example 112, 2-[1-(2-chlorophenyl)pyrazolo[4,5-e]pyrimidin-4-yl]oxy-N-(5-fluoro-2-pyridyl)-3-isopropoxy-propanamide] | 260
